Tests used:
[1] = biological target: T1, enképhalinase purifiée du rein de lapin (Oryctolagus cuniculus, UniProt P08049); experiment: Inhibitory power on enkephalinase (endopeptidase), substrate [3H]D-Ala2-Leu5 enkephalin; type: biochemical; settings: purified rabbit kidney enzyme, 20 min at 25°C, Tris-HCl pH 7.4; read-out: Enképhalinase(M), concentrations inhibitrices 50 % (converted)
T1 construct: l'enképhalinase purifiée du rein de lapin; from tissue; host or cells: rabbit kidney
T1 sequence (P08049 1-750): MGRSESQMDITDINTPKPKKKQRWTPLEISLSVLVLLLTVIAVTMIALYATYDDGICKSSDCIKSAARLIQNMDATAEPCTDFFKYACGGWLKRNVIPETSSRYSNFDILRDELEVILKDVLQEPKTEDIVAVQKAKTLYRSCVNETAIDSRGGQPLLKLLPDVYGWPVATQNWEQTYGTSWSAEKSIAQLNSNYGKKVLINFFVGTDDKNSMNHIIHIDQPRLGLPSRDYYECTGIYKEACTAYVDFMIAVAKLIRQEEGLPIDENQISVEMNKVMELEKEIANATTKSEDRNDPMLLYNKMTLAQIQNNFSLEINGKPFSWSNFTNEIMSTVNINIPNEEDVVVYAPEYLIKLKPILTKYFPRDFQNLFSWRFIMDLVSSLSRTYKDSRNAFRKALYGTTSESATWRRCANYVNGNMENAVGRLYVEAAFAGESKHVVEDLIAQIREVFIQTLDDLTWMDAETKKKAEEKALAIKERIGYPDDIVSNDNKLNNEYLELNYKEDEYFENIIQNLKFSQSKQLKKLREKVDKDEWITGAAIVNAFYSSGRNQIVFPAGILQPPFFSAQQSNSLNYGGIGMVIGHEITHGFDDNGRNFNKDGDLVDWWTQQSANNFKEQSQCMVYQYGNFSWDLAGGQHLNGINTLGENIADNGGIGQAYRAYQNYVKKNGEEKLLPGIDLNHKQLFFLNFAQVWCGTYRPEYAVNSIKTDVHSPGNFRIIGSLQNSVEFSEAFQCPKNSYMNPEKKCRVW
Method: Le pouvoir inhibiteur est déterminé sur de l'enképhalinase purifiée du rein de lapin en suivant le protocole décrit dans la littérature (Llorens, C., B. Malfroy, J.C. Schwartz, G. Gacel, B.P. Roques et al., 1982, J. Neurochem. 39, 1081).
Après une pré-incubation de 15 minutes à 25°C, une aliquote de protéines est incubée pendant 20 minutes à 25°C en présence de 20 nanomoles de [³H]D-Ala²-Leu⁵ enképhaline et du produit à tester dans le tampon Tris-HCl (pH 7.4) 50 mM. On arrête la réaction par addition d'HCl 0.2 N. Le métabolite tritié [³H]Tyr-D-Ala-Gly est séparé de la D-Ala²-Leu⁵-enképhaline par chromatographie sur colonne de porapak.
(§1) L'activité des différents produits est exprimée en concentrations inhibitrices 50 %.

[2] = biological target: T2, aminopeptidase purifiée du rein de lapin (Oryctolagus cuniculus, UniProt P15541); experiment: Inhibitory power on aminopeptidase, substrate [3H]Leu5-enkephalin; type: biochemical; settings: purified rabbit kidney enzyme, [3H]Leu5-enkephalin substrate; read-out: Aminopeptidase(M), concentrations inhibitrices 50 % (converted)
T2 construct: purifiée du rein de lapin; from tissue; host or cells: rabbit kidney
T2 sequence (P15541 1-966): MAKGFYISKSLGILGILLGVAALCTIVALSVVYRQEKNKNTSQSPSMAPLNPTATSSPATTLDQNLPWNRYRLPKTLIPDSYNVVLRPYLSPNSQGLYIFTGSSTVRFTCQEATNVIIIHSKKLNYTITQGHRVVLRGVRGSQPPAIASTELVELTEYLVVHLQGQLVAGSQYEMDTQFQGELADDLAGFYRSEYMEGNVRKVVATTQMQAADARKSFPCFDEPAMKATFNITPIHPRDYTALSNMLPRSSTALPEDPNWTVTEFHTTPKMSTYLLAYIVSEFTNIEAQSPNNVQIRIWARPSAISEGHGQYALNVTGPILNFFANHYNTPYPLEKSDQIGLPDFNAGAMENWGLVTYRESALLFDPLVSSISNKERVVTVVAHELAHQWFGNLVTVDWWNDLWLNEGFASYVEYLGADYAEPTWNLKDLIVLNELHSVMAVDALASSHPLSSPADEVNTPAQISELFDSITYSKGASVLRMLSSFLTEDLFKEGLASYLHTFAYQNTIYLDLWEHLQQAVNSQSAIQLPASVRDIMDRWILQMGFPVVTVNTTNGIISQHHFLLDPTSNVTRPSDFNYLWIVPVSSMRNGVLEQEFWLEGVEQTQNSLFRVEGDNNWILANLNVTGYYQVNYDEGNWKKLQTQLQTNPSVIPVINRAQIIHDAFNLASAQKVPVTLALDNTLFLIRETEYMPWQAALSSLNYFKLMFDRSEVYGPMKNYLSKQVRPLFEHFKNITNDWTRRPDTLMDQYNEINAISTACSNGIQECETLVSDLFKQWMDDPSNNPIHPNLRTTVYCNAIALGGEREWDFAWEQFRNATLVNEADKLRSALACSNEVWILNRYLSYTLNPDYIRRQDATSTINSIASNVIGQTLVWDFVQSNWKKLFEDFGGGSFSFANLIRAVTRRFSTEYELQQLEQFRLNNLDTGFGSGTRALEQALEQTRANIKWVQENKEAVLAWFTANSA
From the text: Le pouvoir inhibiteur est mesuré sur l'aminopeptidase purifiée du rein de lapin en suivant le protocole décrit dans la littérature (Romaine Bouboutou, Gilles Waksman, Joceyline Deim, Marie-Claude Fournié-Zaluski and Bernard P. Roques, Life Sciences, vol. 35, pp. 1023-1030, 1984).
Le dosage est conduit d'une manière identique au précédent, en utilisant la [³H]Leu⁵-enképhaline à la place de la [³H]D-Ala²-Leu⁵-enképhaline comme substrat.
as §1

[3] = biological target: T3, dipeptidylaminopeptidase purifiée à partir du cerveau de rat (Rattus norvegicus, UniProt O55096); experiment: Inhibitory power on dipeptidylaminopeptidase, substrate [3H]Leu5-enkephalin; type: biochemical; settings: enzyme purified from rat brain, [3H]Leu5-enkephalin substrate; read-out: Dipeptidyla-minopeptida-se(M), concentrations inhibitrices 50 % (converted)
T3 construct: purifiée à partir du cerveau de rat; from tissue; host or cells: rat brain
T3 sequence (O55096 2-738 limits assumed): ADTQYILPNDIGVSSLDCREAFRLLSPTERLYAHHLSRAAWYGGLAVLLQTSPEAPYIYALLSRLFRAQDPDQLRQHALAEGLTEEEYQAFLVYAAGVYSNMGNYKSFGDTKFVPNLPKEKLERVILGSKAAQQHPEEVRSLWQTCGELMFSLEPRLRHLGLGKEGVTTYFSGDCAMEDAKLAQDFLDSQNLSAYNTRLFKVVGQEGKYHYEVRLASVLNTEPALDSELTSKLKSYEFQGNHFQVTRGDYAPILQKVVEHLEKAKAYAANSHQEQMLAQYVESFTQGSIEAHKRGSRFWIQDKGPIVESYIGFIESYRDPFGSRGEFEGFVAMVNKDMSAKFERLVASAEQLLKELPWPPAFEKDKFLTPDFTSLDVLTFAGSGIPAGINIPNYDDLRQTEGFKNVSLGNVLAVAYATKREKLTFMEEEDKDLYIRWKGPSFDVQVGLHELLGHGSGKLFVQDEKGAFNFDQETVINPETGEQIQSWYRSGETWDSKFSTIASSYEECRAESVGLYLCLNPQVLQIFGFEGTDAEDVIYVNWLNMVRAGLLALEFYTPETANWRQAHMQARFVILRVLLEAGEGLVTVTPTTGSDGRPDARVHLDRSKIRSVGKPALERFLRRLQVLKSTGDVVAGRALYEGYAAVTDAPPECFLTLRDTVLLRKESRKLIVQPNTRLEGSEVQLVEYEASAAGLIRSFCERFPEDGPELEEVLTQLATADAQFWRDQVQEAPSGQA
From the text: Le pouvoir inhibiteur est mesuré sur la dipeptidylaminopeptidase purifiée à partir du cerveau de rat en suivant le protocole décrit (Romaine Bouboutou, Gilles Waksman, Joceyline Deim, Marie-Claude Fournié-Zaluski and Bernard P. Roques, Life Sciences, vol. 35, pp. 1023-1030, 1984).. On utilise également la [³H]Leu⁵-enképhaline comme substrat.
as §1

souris = experiment: Hot plate test (licking and jump reflex, plate at 55°C); type: in vivo; settings: mouse, intracerebroventricular, 50 )g, plate 55°C; for Saut: cut off 240 s
Method: Il concerne le réflexe de lèchement et de saut de la souris sur une plaque chauffée à 55°C selon la méthode de Jacob et coll. (Arch. Int. Pharmacodyn. 122, 287-300, 1959 : 133, 296-300, 1961).
Administrés par voie intracérébroventriculaire chez la souris, les inhibiteurs testés présentent un effet propre à la fois sur le temps de latence du saut et sur celui des lèchements. Ces effets sont reversés par la naloxone (antagoniste morphinique).
Le cut off correspond au moment où la souris est enlevée si elle n'a pas sauté ;

Molecule | IC50 [1] | IC50 [2] | IC50 [3] | Lèchements (souris; cut off 30 s) | Saut (souris) | Lèchements (s) (souris; cut off 30 s)
Acide [N[N(hydroxyamino) carbonyl-1 phényl-3] propyl]-2 carboxamido-2 cyclohéxanoïque [compound 11] | 5e-10 M | 7e-08 M | 2e-09 M | 30 s | 240 s | –
O=C(O)C[C@H](Cc1ccccc1)NC(=O)[C@@H](CC(=O)NO)Cc1ccccc1 [compound 5, N[N(hydroxy)aminocarbonyl-3 benzyl-2 oxo-1 propyl] benzyl-3 β alanine] | 2e-09 M | 2e-08 M | 5e-10 M | – | – | –
O=C(O)CCC(=O)N[C@@H](CC(=O)NO)Cc1ccccc1 [compound 8, N[carboxy-3 oxo-1 propyl) amino]-3 phenyl-4 (Nʹ[hydroxyamino]-1 oxo-1 butane] | 1.4e-09 M | 1e-05 M | 8e-07 M | – | – | –
CC(CNC(=O)C(CC(=O)NO)Cc1ccccc1)C(=O)O (stereo not drawn) [compound 3, N[N(hydroxy)aminocarbonyl-3 benzyl-2 oxo-1 propyl] methyl-2 β alanine] | 2e-09 M | 4e-07 M | 2e-08 M | – | – | –
CC(CC(=O)NC(CC(=O)NOCc1ccccc1)Cc1ccccc1)C(=O)O (stereo not shown) [compound 10] | 5e-10 M | 4e-06 M | 8e-07 M | – | – | –
O=C(O)CCNC(=O)C(CC(=O)NO)Cc1ccccc1 (racemic) [compound 1, N[N(hydroxy)amino-carbonyl-3 benzyl-2 Oxo-1 propyl] β-alanine] | 2e-09 M | 5e-07 M | 3e-08 M | – | – | –
Acide N[(hydroxy amino carbonyl)-3 benzyl-2 oxo-1 propyl] amino-2 cyclohéxane carboxylique [compound 7] | 4e-09 M | 5e-08 M | 1.5e-09 M | – | 240 s | 26,2 s
CC(CC(=O)O)C(=O)N[C@@H](CC(=O)NO)Cc1ccccc1 (stereo partly shown) [compound 9] | 9e-10 M | 1e-05 M | 1.8e-07 M | – | – | –
N[N-hydroxyamino) carbonyl-3 benzyl-2 oxo-1 propyl] phényl-2 β-alanine [compound 6] | 1.5e-09 M | 8e-08 M | 1e-09 M | – | – | –
CC(CC(=O)O)NC(=O)C(CC(=O)NO)Cc1ccccc1 (stereo not drawn) [compound 2, N[N(hydroxy)aminocarbonyl-3 benzyl-2 oxo-1 propyl] methyl-3 β alanine] | 5e-09 M | 3e-07 M | 5e-10 M | – | – | –
